Drawing on ChEMBL document CHEMBL1150159, “Semisynthetic analogues of the microtubule-stabilizing agent discodermolide: preparation and biological activity” (J Nat Prod, 2002), this text covers IC50 for twelve compounds.

Experiment [1] relates to A549. As to the kind of experiment: Cytotoxicity against human A549 cells. In kind it is functional, cell-based.
For experiment [2], the system named is P388. As to the kind of experiment: Cytotoxicity against mouse P388 cells. In kind it is functional, cell-based.

Each structure is given as a SMILES string. pIC50: −log10 of the molar value.

In the case of `C=C/C=C\[C@H](C)[C@H](OC(N)=O)[C@@H](C)[C@H](OC(C)=O)[C@@H](C)C/C(C)=C\[C@H](C)[C@@H](OC(C)=O)[C@@H](C)/C=C\[C@@H](O)C[C@@H]1OC(=O)C(C)=C[C@H]1C`, the pIC50 in experiment [1] and in experiment [2] was less than 5.12 in each case.
Take `CCCC[C@H](C)[C@H](OC(N)=O)[C@@H](C)[C@H](OC(C)=O)[C@@H](C)C/C(C)=C\[C@H](C)[C@@H](OC(C)=O)[C@@H](C)CCCC[C@@H]1OC(=O)[C@H](C)[C@@H](OC(C)=O)[C@H]1C`: the pIC50 in experiment [2] is less than 5.15.
Regarding `C=C/C=C\[C@H](C)[C@H](O)[C@@H](C)[C@H](O)[C@@H](C)C/C(C)=C\[C@H](C)[C@H]1OC(=O)C=C[C@@H]1C`, the pIC50 in experiment [1] and in experiment [2] was less than 4.89 throughout.
Take `C=C/C=C\[C@H](C)[C@H](OC(N)=O)[C@@H](C)[C@H](O)[C@@H](C)C/C(C)=C\[C@H](C)[C@@H](O)[C@@H](C)/C=C\[C@@H](O)C[C@@H]1OC(=O)C(C)=C[C@H]1C`: the pIC50 in experiment [1] is 7.66; in experiment [2] it was 7.47.
On to `CCCC[C@H](C)[C@H](OC(N)=O)[C@@H](C)[C@H](O)[C@@H](C)C/C(C)=C\[C@H](C)[C@@H](O)[C@@H](C)/C=C\[C@@H](O)C[C@@H]1OC(=O)[C@H](C)[C@@H](O)[C@H]1C`, for which the pIC50 in experiment [1] was 8.08; in experiment [2] it was 8.00.
On to `CCCC[C@H](C)[C@H](OC(N)=O)[C@@H](C)[C@H](O)[C@@H](C)C/C(C)=C\[C@H](C)[C@@H](O)[C@@H](C)CC[C@@H](O)C[C@@H]1OC(=O)[C@H](C)[C@@H](O)[C@H]1C`, for which the pIC50 in experiment [1] is 7.17; in experiment [2], 7.47.
As to `C=C/C=C\[C@H](C)[C@H](OC(N)=O)[C@@H](C)[C@H](OC(C)=O)[C@@H](C)C/C(C)=C\[C@H](C)[C@@H](OC(C)=O)[C@@H](C)/C=C\[C@H](C[C@@H]1OC(=O)C(C)=C[C@H]1C)OC(C)=O`, the figures for the pIC50 in experiment [1] and in experiment [2] were less than 5.15 and 5.15, respectively.
Take `C=C/C=C\[C@H](C)[C@H](OC(N)=O)[C@@H](C)[C@H](O)[C@@H](C)C/C(C)=C\[C@H](C)[C@H]1OC(=O)C=C[C@@H]1C`: the pIC50 is 5.17 in experiment [1] and 5.43 in experiment [2].
In the case of `C=C/C=C\[C@H](C)[C@H](OC(N)=O)[C@@H](C)[C@H](O)[C@@H](C)C/C(C)=C\[C@H](C)[C@@H](OC(C)=O)[C@@H](C)/C=C\[C@@H](O)C[C@@H]1OC(=O)C(C)=C[C@H]1C`, the figures for the pIC50 in experiment [1] and in experiment [2] were 5.50 and 6.28, respectively.
For the compound `CCCC[C@H](C)[C@H](OC(N)=O)[C@@H](C)[C@H](O)[C@@H](C)CC(C)C[C@H](C)[C@@H](O)[C@@H](C)CC[C@@H](O)C[C@@H]1OC(=O)[C@H](C)[C@@H](O)[C@H]1C` (stereo partly drawn), the pIC50 in experiment [1] and in experiment [2] was less than 5.08 in each case.
Consider `C=C/C=C\[C@H](C)[C@H](OC(N)=O)[C@@H](C)[C@H](OC(C)=O)[C@@H](C)C/C(C)=C\[C@H](C)[C@@H](O)[C@@H](C)/C=C\[C@@H](O)C[C@@H]1OC(=O)C(C)=C[C@H]1C`, for which the pIC50 in experiment [1] and in experiment [2] was less than 5.09 in each case.
In the case of `CCCC[C@H](C)[C@H](OC(N)=O)[C@@H](C)[C@H](O)[C@@H](C)C/C(C)=C\[C@H](C)[C@@H](O)[C@@H](C)CCCC[C@@H]1OC(=O)[C@H](C)[C@@H](O)[C@H]1C`, the pIC50 was 6.42 in experiment [1] and 6.51 in experiment [2].

By pIC50 is commonly meant the negative decadic logarithm of the IC50, by convention in mol/L. Lower therefore signals a large IC50.
